{
  "source": "patent US20040110963A1",
  "about": "“Novel hydrazones” (priority 2001, published 2004)",
  "assay_in_all_cases": "In vitro antibacterial activity (MIC, NCCLS M7-A5 dilution susceptibility test)",
  "format_in_all_cases": "cell-based",
  "key": {"[1]": {"system": "Staphylococcus aureus ATCC25923", "conditions": "for MIC: read-out: Minimum Inhibitory Concentration (MIC) Staphylococcus aureus ATCC25923", "procedure": "(§1) Antimicrobial susceptibility testing was performed in accordance with the National Committee for Clinical Laboratory Standards (NCCLS) procedure [M7-A5, 2001: Methods for Dilution Antimicrobial Susceptibility Tests for Bacteria That Grow Aerobically; Approved Standard-Fifth Edition American National Standard]."}, "[2]": {"system": "Staphylococcus aureus 101", "conditions": "for MIC: read-out: Minimum Inhibitory Concentration (MIC) Staphylococcus aureus 101", "procedure": "as §1"}, "Escherichia coli DC2": {"system": "Escherichia coli DC2", "conditions": "for MIC: read-out: Minimum Inhibitory Concentration (MIC) Escherichia coli DC2", "procedure": "as §1"}},
  "data": [
    {"compound": "3,5-Bis-(trifluoromethyl)-N′-(2,3,4-trihydroxy-benzylidene)-benzohydrazide [Example 41]", "values": [
      {"measurement": "Minimum Inhibitory Concentration (MIC) Staphylococcus aureus ATCC25923", "setting": "[1]", "value": 64, "unit": "micrograms/ml"},
      {"measurement": "Minimum Inhibitory Concentration (MIC) Staphylococcus aureus 101", "setting": "[2]", "value": 64, "unit": "micrograms/ml"},
      {"measurement": "Minimum Inhibitory Concentration (MIC) Escherichia coli DC2", "setting": "Escherichia coli DC2", "value": "na (na means not active at concentrations less than 128 μg/ml)"}
    ]},
    {"compound": "COc1ccc(C(=O)NN=Cc2ccc(O)c(O)c2O)cc1", "note": "[Example 39, 4-Methoxy-N′-(2,3,4-trihydroxy-benzylidene)-benzohydrazide]", "values": [
      {"measurement": "MIC", "setting": "[1]", "value": 64, "unit": "µg/mL"},
      {"measurement": "MIC", "setting": "[2]", "value": 64, "unit": "µg/mL"},
      {"measurement": "MIC", "setting": "Escherichia coli DC2", "value": 64, "unit": "µg/mL"}
    ]},
    {"compound": "O=C(NN=Cc1cccc(O)c1O)c1ccc(Cl)c(Cl)c1", "note": "[Example 40, 3,4-Dichloro-N′-(2,3-dihydroxy-benzylidene)-benzohydrazide]", "values": [
      {"measurement": "MIC", "setting": "[1]", "value": 4, "unit": "µg/mL"},
      {"measurement": "MIC", "setting": "[2]", "value": 4, "unit": "µg/mL"},
      {"measurement": "MIC", "setting": "Escherichia coli DC2", "value": "> 128", "unit": "µg/mL"}
    ]},
    {"compound": "O=C(NN=Cc1ccc(O)c(O)c1O)c1cccc(Cl)c1-n1cccc1", "note": "[Example 42, 3-Chloro-2-pyrrol-1-yl-N′-(2,3,4-trihydroxy-benzylidene)-benzohydrazide]", "values": [
      {"measurement": "MIC", "setting": "[1]", "value": 32, "unit": "µg/mL"},
      {"measurement": "MIC", "setting": "[2]", "value": 32, "unit": "µg/mL"},
      {"measurement": "MIC", "setting": "Escherichia coli DC2", "value": 128, "unit": "µg/mL"}
    ]},
    {"compound": "O=C(NN=Cc1cc(Cl)cc(Cl)c1O)c1cccc(Cl)c1-n1cccc1", "note": "[Example 43, 3-Chloro-2-pyrrol-1-yl-N′-(2-hydroxy-3,5-dichloro-benzylidene)-benzohydrazide]", "values": [
      {"measurement": "MIC", "setting": "[1]", "value": 2, "unit": "µg/mL"},
      {"measurement": "MIC", "setting": "[2]", "value": 2, "unit": "µg/mL"},
      {"measurement": "MIC", "setting": "Escherichia coli DC2", "value": "> 128", "unit": "µg/mL"}
    ]},
    {"compound": "O=C(NN=Cc1cc(O)c(O)cc1O)c1ccccc1-n1cccc1", "note": "[Example 44, 2-Pyrrol-1-yl-N′-(2,4,5-trihydroxy-benzylidene)-benzohydrazide]", "values": [
      {"measurement": "MIC", "setting": "[1]", "value": 64, "unit": "µg/mL"},
      {"measurement": "MIC", "setting": "[2]", "value": 64, "unit": "µg/mL"},
      {"measurement": "MIC", "setting": "Escherichia coli DC2", "value": 128, "unit": "µg/mL"}
    ]},
    {"compound": "O=C(NN=Cc1ccc(O)c(O)c1O)c1ccc(Cl)c(C(F)(F)F)c1", "note": "[Example 45, 4-Chloro-3-trifluoromethyl-N′-(2,3,4-trihydroxy-benzylidene)-benzohydrazide]", "values": [
      {"measurement": "MIC", "setting": "[1]", "value": 0.5, "unit": "µg/mL"},
      {"measurement": "MIC", "setting": "[2]", "value": 1, "unit": "µg/mL"},
      {"measurement": "MIC", "setting": "Escherichia coli DC2", "value": 2, "unit": "µg/mL"}
    ]},
    {"compound": "O=C(NN=Cc1cc(Cl)cc(Cl)c1O)c1ccc(Cl)c(C(F)(F)F)c1", "note": "[Example 46, 4-Chloro-3-trifluoromethyl-N′-(2-hydroxy-3,5-dichloro-benzylidene)-benzohydrazide]", "values": [
      {"measurement": "MIC", "setting": "[1]", "value": 128, "unit": "µg/mL"},
      {"measurement": "MIC", "setting": "[2]", "value": 128, "unit": "µg/mL"},
      {"measurement": "MIC", "setting": "Escherichia coli DC2", "value": "> 128", "unit": "µg/mL"}
    ]}
  ]
}
